Here are results for 21 compounds from patent publication US20240002391A1, “4-ALKOXYPYRROLO[2,1-F][1,2,4]TRIAZINES AND PREPARATION AND USES THEREOF” (BioSplice Therapeutics, Inc., priority 2022, published 2024).

For this assay, the target named is recombinant DYRK1A kinase (Homo sapiens (Human), UniProt Q13627). Kind of assay: DYRK1A kinase assay (Ser/Thr 18 peptide Z-lyte FRET). Type of assay: biochemical. The note with it: DYRK1A kinase activity, Z-lyte Ser/Thr 18 peptide, 15 μM ATP; method text calls the value IC50; read-out: EC50 (the source's name). In short, it runs like this: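 IC50 from non-linear fits of percent phosphorylation, derived from coumarin/fluorescein emission ratio after 1 h protease development. Kinase reaction: 1 h room temperature, 15 μM ATP, 4 μM Ser/Thr peptide 18, 0.25 μg/mL recombinant DYRK1A, duplicate 11-point 1:3 dilutions from 10 μM.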
Turning to `COc1nc(N[C@H]2C[C@](C)(O)C2)nn2ccc(-c3ccc4nc(C)n(CCO)c4c3)c12` [Compound 170, trans-3-((5-(1-(2-Hydroxyethyl)-2-methyl-1H-benzo[d]imidazol-6-yl)-4-methoxypyrrolo[2,1-f][1,2,4]triazin-2-yl)amino)-1-methylcyclobutan-1-ol], the IC50 came out at 8.6 nM.
For the compound `COc1nc(N[C@H]2C[C@](C)(NC(C)=O)C2)nn2ccc(-c3ccc4nc(C)n(CCO)c4c3)c12` [Compound 171, N-(trans-3-((5-(1-(2-Hydroxyethyl)-2-methyl-1H-benzo[d]imidazol-6-yl)-4-methoxypyrrolo[2,1-f][1,2,4]triazin-2-yl)amino)-1-methylcyclobutyl)acetamide], the IC50 amounted to 2.9 nM.
For the compound `COc1nc(N[C@H]2CC[C@](C)(O)CC2)nn2ccc(-c3ccc4nc(C)n(CCO)c4c3)c12` [Compound 172, trans-4-((5-(1-(2-Hydroxyethyl)-2-methyl-1H-benzo[d]imidazol-6-yl)-4-methoxypyrrolo[2,1-f][1,2,4]triazin-2-yl)amino)-1-methylcyclohexan-1-ol], the IC50 turned out to be 2.5 nM.
In the case of `COc1nc(NC2CCC3(CC2)CN(C(C)=O)C3)nn2ccc(-c3ccc4nc(C)n(CCO)c4c3)c12` [Compound 173, 1-(7-((5-(1-(2-hydroxyethyl)-2-methyl-1H-benzo[d]imidazol-6-yl)-4-methoxypyrrolo[2,1-f][1,2,4]triazin-2-yl)amino)-2-azaspiro[3.5]nonan-2-yl)ethan-1-one] it was 1.7 nM.
Turning to `COc1nc(NC2CCC3(CC2)COC3)nn2ccc(-c3ccc4nc(C)n(CCO)c4c3)c12` [Compound 174, 2-(6-(2-((2-Oxaspiro[3.5]nonan-7-yl)amino)-4-methoxypyrrolo[2,1-f][1,2,4]triazin-5-yl)-2-methyl-1H-benzo[d]imidazol-1-yl)ethan-1-ol], the IC50 worked out at 3 nM.
As for `COc1nc(N[C@H]2CC[C@](C)(O)CC2)nn2ccc(-c3ccc4nncn4c3)c12` [Compound 187, trans-4-((5-([1,2,4]Triazolo[4,3-a]pyridin-6-yl)-4-methoxypyrrolo[2,1-f][1,2,4]triazin-2-yl)amino)-1-methylcyclohexan-1-ol], the IC50 turned out to be 100 nM.
In the case of `COc1nc(NC2CCC3(CC2)COC3)nn2ccc(-c3ccc4nncn4c3)c12` [Compound 188, 5-([1,2,4]Triazolo[4,3-a]pyridin-6-yl)-4-methoxy-N-(2-oxaspiro[3.5]nonan-7-yl)pyrrolo[2,1-f][1,2,4]triazin-2-amine] it was 50.3 nM; in that of `COc1nc(N[C@H]2C[C@](C)(N)C2)nn2ccc(-c3ccc4ncnn4c3)c12` [Compound 190, trans-N^1-(5-([1,2,4]Triazolo[1,5-a]pyridin-6-yl)-4-methoxypyrrolo[2,1-f][1,2,4]triazin-2-yl)-3-methylcyclobutane-1,3-diamine], 11.5 nM; in that of `COc1nc(N[C@H]2C[C@@](C)(NC(C)=O)C2)nn2ccc(-c3ccc4ncnn4c3)c12` [Compound 191, N-(cis-3-((5-([1,2,4]Triazolo[1,5-a]pyridin-6-yl)-4-methoxypyrrolo[2,1-f][1,2,4]triazin-2-yl)amino)-1-methylcyclobutyl)acetamide], 5.3 nM.
Take `COc1nc(NC2CCC(F)(F)CC2)nn2ccc(-c3ccc4ncnn4c3)c12` [Compound 193, 5-([1,2,4]Triazolo[1,5-a]pyridin-6-yl)-N-(4,4-difluorocyclohexyl)-4-methoxypyrrolo[2,1-f][1,2,4]triazin-2-amine]: the IC50 is 19.9 nM.
In the case of `COc1nc(NC2CCC3(CC2)CNC3)nn2ccc(-c3ccc4ncnn4c3)c12` [Compound 195, 5-([1,2,4]Triazolo[1,5-a]pyridin-6-yl)-4-methoxy-N-(2-azaspiro[3.5]nonan-7-yl)pyrrolo[2,1-f][1,2,4]triazin-2-amine] it was 3.9 nM; in that of `COc1nc(NC2CCC3(CC2)CN(C(C)=O)C3)nn2ccc(-c3ccc4ncnn4c3)c12` [Compound 196, 1-(7-((5-([1,2,4]Triazolo[1,5-a]pyridin-6-yl)-4-methoxypyrrolo[2,1-f][1,2,4]triazin-2-yl)amino)-2-azaspiro[3.5]nonan-2-yl)ethan-1-one], 1.1 nM.
The same measure for `COc1nc(NC2CCC3(CC2)CN(C(=O)OC(C)(C)C)C3)nn2ccc(-c3ccc4ncnn4c3)c12` [Compound 197, tert-Butyl 7-((5-([1,2,4]triazolo[1,5-a]pyridin-6-yl)-4-methoxypyrrolo[2,1-f][1,2,4]triazin-2-yl)amino)-2-azaspiro[3.5]nonane-2-carboxylate]: 29.6 nM; for `COc1nc(NC2CCC3(CC2)COC3)nn2ccc(-c3ccc4ncnn4c3)c12` [Compound 198, 5-([1,2,4]Triazolo[1,5-a]pyridin-6-yl)-4-methoxy-N-(2-oxaspiro[3.5]nonan-7-yl)pyrrolo[2,1-f][1,2,4]triazin-2-amine]: 4.5 nM.
Turning to `COc1nc(N[C@H]2C[C@@](C)(O)C2)nn2ccc(-c3ccc4nnn(C)c4c3)c12` [Compound 199, cis-3-((4-Methoxy-5-(1-methyl-1H-benzo[d][1,2,3]triazol-6-yl)pyrrolo[2,1-f][1,2,4]triazin-2-yl)amino)-1-methylcyclobutan-1-ol], the IC50 was 5.7 nM.
The same measure for `COc1nc(N[C@H]2C[C@@H](OCCO)C2)nn2ccc(-c3ccc4nnn(C)c4c3)c12` [Compound 201, 2-(cis-3-((4-Methoxy-5-(1-methyl-1H-benzo[d][1,2,3]triazol-6-yl)pyrrolo[2,1-f][1,2,4]triazin-2-yl)amino)cyclobutoxy)ethan-1-ol]: 2 nM; for `COc1nc(N[C@H]2C[C@@](C)(N)C2)nn2ccc(-c3ccc4nnn(C)c4c3)c12` [Compound 202, cis-N^1-(4-Methoxy-5-(1-methyl-1H-benzo[d][1,2,3]triazol-6-yl)pyrrolo[2,1-f][1,2,4]triazin-2-yl)-3-methylcyclobutane-1,3-diamine]: 10.9 nM; for `COc1nc(N[C@H]2C[C@](C)(N)C2)nn2ccc(-c3ccc4nnn(C)c4c3)c12` [Compound 203, trans-N^1-(4-methoxy-5-(1-methyl-1H-benzo[d][1,2,3]triazol-6-yl)pyrrolo[2,1-f][1,2,4]triazin-2-yl)-3-methylcyclobutane-1,3-diamine]: 7.5 nM.
In the case of `COc1nc(N[C@H]2C[C@@](C)(N(C)C)C2)nn2ccc(-c3ccc4nnn(C)c4c3)c12` [Compound 204, cis-N^3-(4-methoxy-5-(1-methyl-1H-benzo[d][1,2,3]triazol-6-yl)pyrrolo[2,1-f][1,2,4]triazin-2-yl)-N^1,N^1,1-trimethylcyclobutane-1,3-diamine] it was 3.5 nM; in that of `COc1nc(N[C@H]2C[C@@](C)(NC(C)=O)C2)nn2ccc(-c3ccc4nnn(C)c4c3)c12` [Compound 205, N-(cis-3-((4-Methoxy-5-(1-methyl-1H-benzo[d][1,2,3]triazol-6-yl)pyrrolo[2,1-f][1,2,4]triazin-2-yl)amino)-1-methylcyclobutyl)acetamide], 4.3 nM; in that of `COc1nc(N[C@H]2C[C@](C)(NC(C)=O)C2)nn2ccc(-c3ccc4nnn(C)c4c3)c12` [Compound 206, N-(trans-3-((4-Methoxy-5-(1-methyl-1H-benzo[d][1,2,3]triazol-6-yl)pyrrolo[2,1-f][1,2,4]triazin-2-yl)amino)-1-methylcyclobutyl)acetamide], 0.4 nM.
